Assay results published in ChEMBL document CHEMBL4831486, “Design, synthesis and biological evaluation of pleuromutilin-Schiff base hybrids as potent anti-MRSA agents in vitro and in vivo” (Eur J Med Chem, 2021).
Values after ≈ are worked out from the molar mass of the structure shown.

Columns and labels:
[1] = tested on: Staphylococcus aureus; experiment: Antibacterial activity against Methycillin-resistant Staphylococcus aureus ATCC 43300 assessed as inhibition of bacterial growth measured after 24 hrs by broth dilution method; format: functional
[2] = tested on: Staphylococcus aureus; experiment: Antibacterial activity against Staphylococcus aureus ATCC 29213 assessed as inhibition of bacterial growth measured after 24 hrs by broth dilution method; format: functional
[3] = tested on: Staphylococcus aureus; experiment: Antibacterial activity against Staphylococcus aureus AD3 assessed as inhibition of bacterial growth measured after 24 hrs by broth dilution method; format: functional
[4] = tested on: Staphylococcus aureus; experiment: Antibacterial activity against Staphylococcus aureus 144 assessed as inhibition of bacterial growth measured after 24 hrs by broth dilution method; format: functional
[5] = tested on: Escherichia coli; experiment: Antibacterial activity against Escherichia coli ATCC 25922 assessed as inhibition of bacterial growth measured after 24 hrs by broth dilution method; format: functional
[6] = tested on: Staphylococcus aureus; experiment: Bactericidal activity against Methycillin-resistant Staphylococcus aureus ATCC 43300 assessed as inhibition of bacterial growth measured after 96 hrs by broth dilution method; format: functional
[7] = tested on: Staphylococcus aureus; experiment: Bactericidal activity against Staphylococcus aureus ATCC 29213 assessed as inhibition of bacterial growth measured after 96 hrs by broth dilution method; format: functional
[8] = tested on: Staphylococcus aureus; experiment: Bactericidal activity against Staphylococcus aureus AD3 assessed as inhibition of bacterial growth measured after 96 hrs by broth dilution method; format: functional
[9] = tested on: Staphylococcus aureus; experiment: Bactericidal activity against Staphylococcus aureus 144 assessed as inhibition of bacterial growth measured after 96 hrs by broth dilution method; format: functional
[10] = tested on: Escherichia coli; experiment: Bactericidal activity against Escherichia coli ATCC 25922 assessed as inhibition of bacterial growth measured after 96 hrs by broth dilution method; format: functional
[11] = tested on: RAW264.7; experiment: Cytotoxicity against mouse RAW264.7 cells assessed as reduced cell viability at 4 ug/ml measured after 16 hrs by MTT assay; format: cell-based; details: raw264.7, 16 h, dose 4 µg/ml
[12] = tested on: HepG2; experiment: Cytotoxicity against human HepG2 cells assessed as reduced cell viability at 4 ug/ml measured after 16 hrs by MTT assay; format: cell-based; details: hepg2, 16 h, dose 4 µg/ml
[13] = tested on: Staphylococcus aureus; experiment: Bactericidal activity against methicillin-resistant Staphylococcus aureus ATCC 43300 assessed as reduction in bacterial growth at 4X MIC measured for 24 hrs by time kill assay; format: functional; design: scale not given: the % may be the effect or the level left
[14] = tested on: Staphylococcus aureus; experiment: Antibacterial activity against methicillin-resistant Staphylococcus aureus ATCC 43300 assessed as post antibiotic effect by measuring time required for increase in 1 log10 CFU/ml of bacteria at 2X MIC incubated for 2 hrs followed by compound washout and measured after 20 hrs by time-kill assay (reference value: 2.51 hrs); format: functional
[15] = tested on: Staphylococcus aureus; experiment: Antibacterial activity against methicillin-resistant Staphylococcus aureus ATCC 43300 assessed as post antibiotic effect by measuring time required for increase in 1 log10 CFU/ml of bacteria at 4X MIC incubated for 2 hrs followed by compound washout and measured after 20 hrs by time-kill assay (reference value: 2.51 hrs); format: functional

SMILES | MIC [1] [µg/mL] | MIC [2] [µg/mL] | MIC [3] [µg/mL] | MIC [4] [µg/mL] | MIC [5] [µg/mL] | MBC [6] [µg/mL] | MBC [7] [µg/mL] | MBC [8] [µg/mL] | MBC [9] [µg/mL] | MBC [10] [µg/mL] | Activity [11] | Activity [12] | Activity [13] [%] | Time [14] [h] | Time [15] [h]
C=C[C@]1(C)C[C@@H](OC(=O)CSc2nnc(C)n2/N=C/c2cccc(C(F)(F)F)c2)[C@]2(C)[C@H](C)CC[C@]3(CCC(=O)[C@H]32)[C@@H](C)[C@@H]1O | 2 (≈ 3.09 µM) | 2 (≈ 3.09 µM) | 2 (≈ 3.09 µM) | 4 (≈ 6.18 µM) | > 64 | 4 (≈ 6.18 µM) | 4 (≈ 6.18 µM) | 4 (≈ 6.18 µM) | 4 (≈ 6.18 µM) | > 64 | Non-Toxic | Non-Toxic | – | – | –
C=C[C@]1(C)C[C@@H](OC(=O)CSc2nnc(C)n2/N=C/c2ccc(N3CCOCC3)cc2)[C@]2(C)[C@H](C)CC[C@]3(CCC(=O)[C@H]32)[C@@H](C)[C@@H]1O | 0.5 (≈ 0.753 µM) | 1 (≈ 1.51 µM) | 1 (≈ 1.51 µM) | 2 (≈ 3.01 µM) | > 64 | 1 (≈ 1.51 µM) | 2 (≈ 3.01 µM) | 4 (≈ 6.03 µM) | 4 (≈ 6.03 µM) | > 64 | Non-Toxic | Non-Toxic | – | – | –
C=C[C@]1(C)C[C@@H](OC(=O)CSc2nnc(C)n2/N=C/c2ccc(C#N)cc2)[C@]2(C)[C@H](C)CC[C@]3(CCC(=O)[C@H]32)[C@@H](C)[C@@H]1O | 1 (≈ 1.66 µM) | 1 (≈ 1.66 µM) | 2 (≈ 3.31 µM) | 2 (≈ 3.31 µM) | > 64 | 4 (≈ 6.62 µM) | 4 (≈ 6.62 µM) | 4 (≈ 6.62 µM) | 4 (≈ 6.62 µM) | > 64 | Non-Toxic | Non-Toxic | – | – | –
C=C[C@]1(C)C[C@@H](OC(=O)CSc2nnc(C)n2/N=C/c2ccccc2[N+](=O)[O-])[C@]2(C)[C@H](C)CC[C@]3(CCC(=O)[C@H]32)[C@@H](C)[C@@H]1O | 0.5 (≈ 0.802 µM) | 1 (≈ 1.6 µM) | 2 (≈ 3.21 µM) | 2 (≈ 3.21 µM) | > 64 | 1 (≈ 1.6 µM) | 4 (≈ 6.41 µM) | 8 (≈ 12.8 µM) | 8 (≈ 12.8 µM) | > 64 | Non-Toxic | Non-Toxic | – | – | –
C=C[C@]1(C)C[C@@H](OC(=O)CSc2nnc(C)n2/N=C/c2ccc(C(F)(F)F)cc2)[C@]2(C)[C@H](C)CC[C@]3(CCC(=O)[C@H]32)[C@@H](C)[C@@H]1O | 2 (≈ 3.09 µM) | 2 (≈ 3.09 µM) | 2 (≈ 3.09 µM) | 4 (≈ 6.18 µM) | > 64 | 4 (≈ 6.18 µM) | 4 (≈ 6.18 µM) | 8 (≈ 12.4 µM) | 8 (≈ 12.4 µM) | > 64 | Non-Toxic | Non-Toxic | – | – | –
C=C[C@]1(C)C[C@@H](OC(=O)CSc2nnc(C)n2/N=C/c2cccc(C#N)c2)[C@]2(C)[C@H](C)CC[C@]3(CCC(=O)[C@H]32)[C@@H](C)[C@@H]1O | 1 (≈ 1.66 µM) | 1 (≈ 1.66 µM) | 2 (≈ 3.31 µM) | 2 (≈ 3.31 µM) | > 64 | 2 (≈ 3.31 µM) | 4 (≈ 6.62 µM) | 8 (≈ 13.2 µM) | 4 (≈ 6.62 µM) | > 64 | Non-Toxic | Non-Toxic | – | – | –
C=C[C@]1(C)C[C@@H](OC(=O)CSc2nnc(C)n2/N=C/c2cccc([N+](=O)[O-])c2)[C@]2(C)[C@H](C)CC[C@]3(CCC(=O)[C@H]32)[C@@H](C)[C@@H]1O | 1 (≈ 1.6 µM) | 2 (≈ 3.21 µM) | 2 (≈ 3.21 µM) | 2 (≈ 3.21 µM) | > 64 | 2 (≈ 3.21 µM) | 8 (≈ 12.8 µM) | 8 (≈ 12.8 µM) | 4 (≈ 6.41 µM) | > 64 | Non-Toxic | Non-Toxic | – | – | –
C=C[C@]1(C)C[C@@H](OC(=O)CSc2nnc(C)n2/N=C/c2ccc(N3CCCC3)cc2)[C@]2(C)[C@H](C)CC[C@]3(CCC(=O)[C@H]32)[C@@H](C)[C@@H]1O | 1 (≈ 1.54 µM) | 2 (≈ 3.09 µM) | 2 (≈ 3.09 µM) | 2 (≈ 3.09 µM) | > 64 | 2 (≈ 3.09 µM) | 4 (≈ 6.17 µM) | 4 (≈ 6.17 µM) | 4 (≈ 6.17 µM) | > 64 | Non-Toxic | Non-Toxic | – | – | –
C=C[C@]1(C)C[C@@H](OC(=O)CSc2nnc(C)n2/N=C/c2ccc(N(C)C)cc2)[C@]2(C)[C@H](C)CC[C@]3(CCC(=O)[C@H]32)[C@@H](C)[C@@H]1O | 0.5 (≈ 0.804 µM) | 0.5 (≈ 0.804 µM) | 1 (≈ 1.61 µM) | 2 (≈ 3.22 µM) | > 64 | 1 (≈ 1.61 µM) | 2 (≈ 3.22 µM) | 4 (≈ 6.43 µM) | 4 (≈ 6.43 µM) | > 64 | Non-Toxic | Non-Toxic | – | – | –
C=C[C@]1(C)C[C@@H](OC(=O)CSc2nnc(C)n2/N=C/c2ccc([N+](=O)[O-])cc2)[C@]2(C)[C@H](C)CC[C@]3(CCC(=O)[C@H]32)[C@@H](C)[C@@H]1O | 1 (≈ 1.6 µM) | 2 (≈ 3.21 µM) | 2 (≈ 3.21 µM) | 2 (≈ 3.21 µM) | > 64 | 2 (≈ 3.21 µM) | 4 (≈ 6.41 µM) | 8 (≈ 12.8 µM) | 8 (≈ 12.8 µM) | > 64 | Non-Toxic | Non-Toxic | – | – | –
C=C[C@]1(C)C[C@@H](OC(=O)CSc2nnc(C)n2/N=C/c2cccc(O)c2)[C@]2(C)[C@H](C)CC[C@]3(CCC(=O)[C@H]32)[C@@H](C)[C@@H]1O | 0.5 (≈ 0.841 µM) | 0.5 (≈ 0.841 µM) | 1 (≈ 1.68 µM) | 2 (≈ 3.36 µM) | > 64 | 1 (≈ 1.68 µM) | 2 (≈ 3.36 µM) | 4 (≈ 6.73 µM) | 4 (≈ 6.73 µM) | > 64 | Non-Toxic | Non-Toxic | – | – | –
C=C[C@]1(C)C[C@@H](OC(=O)CSc2nnc(C)n2/N=C/c2ccc(O)cc2)[C@]2(C)[C@H](C)CC[C@]3(CCC(=O)[C@H]32)[C@@H](C)[C@@H]1O | 0.25 (≈ 0.42 µM) | 0.5 (≈ 0.841 µM) | 0.5 (≈ 0.841 µM) | 1 (≈ 1.68 µM) | > 64 | 1 (≈ 1.68 µM) | 2 (≈ 3.36 µM) | 2 (≈ 3.36 µM) | 2 (≈ 3.36 µM) | > 64 | Non-Toxic | Non-Toxic | 99.9 | 2.55 | 3.22
C=C[C@]1(C)C[C@@H](OC(=O)CSc2nnc(C)n2/N=C/c2ccc(N(CC)CC)cc2)[C@]2(C)[C@H](C)CC[C@]3(CCC(=O)[C@H]32)[C@@H](C)[C@@H]1O | 4 (≈ 6.15 µM) | 4 (≈ 6.15 µM) | 4 (≈ 6.15 µM) | 4 (≈ 6.15 µM) | > 64 | 4 (≈ 6.15 µM) | 8 (≈ 12.3 µM) | 16 (≈ 24.6 µM) | 8 (≈ 12.3 µM) | > 64 | Non-Toxic | Non-Toxic | – | – | –
